Reference: patent publication US8501992B2, “Hydroxyphenyl sulfonamides as antiapoptotic bcl inhibitors” (Bristol-Myers Squibb Company, priority 2008, dated 2013)

Legend:
Format in all cases: binding
[1] = molecular target: T1, Bcl-b (Homo sapiens, UniProt Q9HD36); test: Bclb/Bim fluorescence polarization assay (FPA); conditions: BIM BH3 peptide 5 nM, Bcl-b 40 nM, Ki calculated from FPA data
T1 construct: without their C-terminal transmembrane domain; GST; made in house
T1 sequence (Q9HD36 1-182 limits assumed): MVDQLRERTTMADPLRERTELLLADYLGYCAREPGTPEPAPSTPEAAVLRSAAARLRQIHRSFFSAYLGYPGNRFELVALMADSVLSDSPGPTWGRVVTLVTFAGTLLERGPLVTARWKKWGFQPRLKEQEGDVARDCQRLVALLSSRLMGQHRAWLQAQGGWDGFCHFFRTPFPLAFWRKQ
Description: (§1) Compounds were profiled for their ability to disrupt in vitro binding interactions in fluorescence polarization assays (FPAs) using synthetic fluorochrome-labeled Bcl homology 3 (BH3) peptides derived from BIM [(FAM)-Ahx-[…]-NH2 (SEQ ID NO: 1) (GenBank Accession No. O43521)] or BAK [Ac-GQVGRQLAIIGE-LYS(FAM)-INR-NH2 (SEQ ID NO:2) (GenBank Accession No. Q16611) amino acid sequences and four bacterial recombinant proteins [Bcl-b (GenBank Accession No. Q9HD36), Bcl-2 (GenBank Accession No. P10415), Bcl-Xl (GenBank Accession No. Q07817), Mcl-1 (GenBank Accession No. Q07820)] without their C-terminal transmembrane domain. Proteins were purified from bacterial lysates using their glutathione S-transferase (GST)-tag (Bcl-b, Bcl-2, Mcl-1) or His6-tag (Bcl-Xl) and following one-step affinity chromatography procedures. Dissociation constants (Kd) for peptide binding protein were determined by fluorescence polarization in FPAs measuring BIM BH3 peptide binding Bcl-b, Mcl-1 or Bcl-2 protein or BAK BH3 peptide binding Bcl-Xl protein. The Kd values were generated by fitting the experimental data using a sigmoidal dose-response nonlinear regression model.
(§2) Compound inhibitory concentration values, IC50 (50% reduction in fluorescence polarization), were determined using fluorochrome-labeled BH3 peptides and recombinant Bcl proteins in fluorescence polarization assays (FPAs). Compounds diluted in DMSO (0.5 ul) were transferred (in duplicate) to individual wells of a 384-well plate. The fluorochrome-labeled peptide was added followed by recombinant protein addition. Each binding FPA reaction (50 ul) contained BIM BH3 peptide (5 nM) or BAK BH3 peptide (1.5 nM) and Bcl-b (40 nM), Mcl-1 (28 nM), Bcl-2 (11 nM) or Bcl-Xl. (5 nM) protein suspended in assay buffer [20 mM sodium phosphate, pH 7.4, 1 mM EDTA, 50 mM NaCl., 0.05% Pluronic F68]. Reaction mixtures were incubated at ambient temperature for 60 minutes prior to measuring polarization (mP) using an Analyst (LJL, Molecular Devices, Sunnyvale, Calif.) programmed to detect an emission wavelength of 530 nm after excitation (excitation wavelength=485 nm).
(§3) Competitive compound inhibition constants (Ki) were calculated using FPA experimental data and a mathematical equation, Ki=[I]50/([L]50/Kd+[P]0/Kd+1), where [I]50 denotes free inhibitor concentration at 50% inhibition, [L]50 is free labeled ligand concentration at 50% inhibition, [P]0 is free protein concentration at 0% inhibition, and Kd is the dissociation constant of the protein-ligand complex.

[2] = molecular target: T2, Mcl-1 (Homo sapiens, UniProt Q07820); test: Mcl-1/Bim fluorescence polarization assay (FPA); conditions: BIM BH3 peptide 5 nM, Mcl-1 28 nM, Ki calculated from FPA data
T2 construct: without their C-terminal transmembrane domain; GST; made in house
T2 sequence (Q07820 1-327 limits assumed): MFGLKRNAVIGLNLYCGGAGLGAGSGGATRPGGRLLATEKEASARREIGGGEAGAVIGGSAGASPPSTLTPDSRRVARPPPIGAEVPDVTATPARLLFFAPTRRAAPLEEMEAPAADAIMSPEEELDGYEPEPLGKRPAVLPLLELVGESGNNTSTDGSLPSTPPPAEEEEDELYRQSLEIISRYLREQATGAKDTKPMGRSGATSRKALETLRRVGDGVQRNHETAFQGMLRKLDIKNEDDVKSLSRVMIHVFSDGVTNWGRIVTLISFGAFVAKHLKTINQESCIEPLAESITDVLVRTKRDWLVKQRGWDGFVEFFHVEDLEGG
Description: as §1, §2, §3

[3] = molecular target: T3, Bcl-2 (Homo sapiens, UniProt P10415); test: Bcl2/Bim fluorescence polarization assay (FPA); conditions: BIM BH3 peptide 5 nM, Bcl-2 11 nM, Ki calculated from FPA data
T3 construct: without their C-terminal transmembrane domain; GST; made in house
T3 sequence (P10415 1-211 limits assumed): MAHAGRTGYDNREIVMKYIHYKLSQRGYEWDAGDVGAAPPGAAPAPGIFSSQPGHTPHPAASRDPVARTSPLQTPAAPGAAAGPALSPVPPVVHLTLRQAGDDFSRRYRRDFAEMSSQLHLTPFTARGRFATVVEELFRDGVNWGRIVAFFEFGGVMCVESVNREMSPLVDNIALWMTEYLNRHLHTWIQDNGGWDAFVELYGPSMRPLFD
Description: as §1, §2, §3

Row | Structure (SMILES) | Ki [1] [nM] | Ki [2] [nM] | Ki [3] [nM]
1 | O=C(NCc1cccc(CN(Cc2ccc(F)cc2)S(=O)(=O)c2cc(Cl)cc(Cl)c2O)c1)c1cc(O)nc(O)c1 [Example 2, N-(3-((3,5-Dichloro-N-(4-fluorobenzyl)-2-hydroxyphenylsulfonamido)methyl)benzyl)-2,6-dihydroxyisonicotinamide] | 50 | 20 | 20
2 | N#Cc1ccc(S(=O)(=O)NCc2cccc(CN(Cc3ccc(-c4ccccc4)cc3)S(=O)(=O)c3cc(Cl)cc(Cl)c3O)c2)cc1 [Example 4, N-(Biphenyl-4-ylmethyl)-3,5-dichloro-N-(3-((4-cyanophenylsulfonamido)methyl)benzyl)-2-hydroxybenzenesulfonamide] | 280 | 60 | 60
3 | Cc1ccc(S(=O)(=O)N(Cc2cc(CN(Cc3ccc(F)cc3)S(=O)(=O)c3cc(Cl)cc(Cl)c3O)cc(Oc3ccc(F)cc3)c2)CC(C)C)cc1 [Example 8, 3,5-Dichloro-N-(4-fluorobenzyl)-N-(3-(4-fluorophenoxy)-5-((N-isobutyl-4-methylphenylsulfonamido)methyl)benzyl)-2-hydroxybenzenesulfonamide] | 100 | 40 | 10
4 | Cc1ccc(S(=O)(=O)N(Cc2ccc(F)cc2)Cc2cc(CNS(=O)(=O)c3cc(Cl)cc(Cl)c3O)cc(-c3ccc(F)cc3)c2)cc1 [Example 13, 3,5-Dichloro-N-((4′-fluoro-5-((N-(4-fluorobenzyl)-4-methylphenylsulfonamido)methyl)biphenyl-3-yl)methyl)-2-hydroxybenzenesulfonamide] | 90 | 30 | 20
5 | CC(C)CN(Cc1cc(Cl)cc(CN(CC(C)C)S(=O)(=O)c2cc(Cl)cc(Cl)c2O)c1)S(=O)(=O)c1cccnc1 [Example 15] | 80 | 10 | 10
6 | COc1ccc(S(N)(=O)=O)cc1C(=O)NCc1cccc(CN(Cc2ccc(-c3ccccc3)cc2)S(=O)(=O)c2cc(Cl)cc(Cl)c2O)c1 [Example 39, N-(3-((N-(biphenyl-4-ylmethyl)-3,5-dichloro-2-hydroxyphenyl-sulfonamido)methyl)benzyl)-2-methoxy-5-sulfamoylbenzamide] | 289 | 207 | 153
7 | O=C(O)c1ccc(S(=O)(=O)NCc2cccc(CN(Cc3ccc(-c4ccccc4)cc3)S(=O)(=O)c3cc(Cl)cc(Cl)c3O)c2)cc1 [Example 49, 4-(N-(3-((N-(biphenyl-4-ylmethyl)-3,5-dichloro-2-hydroxyphenyl-sulfonamido)methyl)benzyl)sulfamoyl)benzoic acid] | 138 | 204 | 347
8 | CS(=O)(=O)c1ccc(CN(Cc2cccc(CNS(=O)(=O)c3cc(Cl)cc(Cl)c3O)c2)S(=O)(=O)c2cc(Cl)cc(Cl)c2O)cc1 [Example 56, 3,5-dichloro-N-(3-((3,5-dichloro-2-hydroxyphenyl-sulfonamido)methyl)benzyl)-2-hydroxy-N-(4-(methylsulfonyl)benzyl) benzenesulfonamide] | 103 | 187 | 148
9 | CCN(CC)CCOc1ccc(CN(Cc2cccc(CNS(=O)(=O)c3cc(Cl)cc(Cl)c3O)c2)S(=O)(=O)c2cc(Cl)cc(Cl)c2O)cc1 [Example 61, 3,5-dichloro-N-(3-((3,5-dichloro-2-hydroxyphenylsulfonamido)methyl)benzyl)-N-(4-(2-(diethylamino)ethoxy)benzyl)-2-hydroxybenzenesulfonamide] | 133 | 1020 | 500
10 | O=S(=O)(NCc1cccc(CN(Cc2ccccc2SC(F)(F)F)S(=O)(=O)c2cc(Cl)cc(Cl)c2O)c1)c1cc(Cl)cc(Cl)c1O [Example 64] | 74 | 169 | 96
11 | CC(C)CN(Cc1cc(Cl)cc(CN(CC(C)C)S(=O)(=O)c2cc(Cl)cc(Cl)c2O)c1)C(=O)c1ccc(SC(F)(F)F)cc1 [Example 71, N-(3-chloro-5-((3,5-dichloro-2-hydroxy-N-isobutylphenylsulfonamido)methyl)benzyl)-N-isobutyl-4-(trifluoromethylthio)benzamide] | 247 | 970 | 469
12 | CC(C)CN(Cc1cc(Cl)cc(CN(CC(C)C)S(=O)(=O)c2cc(Cl)cc(Cl)c2O)c1)C(=O)c1cccc(SC(F)(F)F)c1 [Example 72, N-(3-chloro-5-((3,5-dichloro-2-hydroxy-N-isobutylphenylsulfonamido)methyl)benzyl)-N-isobutyl-3-(trifluoromethylthio)benzamide] | 182 | 1150 | 349
13 | CC(C)CN(Cc1cc(Cl)cc(CN(CC(C)C)S(=O)(=O)c2cc(Cl)cc(Cl)c2O)c1)C(=O)c1cccc(S(=O)(=O)C(F)(F)F)c1 [Example 73, N-(3-chloro-5-((3,5-dichloro-2-hydroxy-N-isobutylphenylsulfonamido)methyl)benzyl)-N-isobutyl-3-(trifluoromethylsulfonyl)benzamide] | 144 | 384 | 319
14 | CS(=O)(=O)c1cccc(CN(Cc2cc(CNC(=O)c3cccc(Oc4ccccc4)c3)cc(Oc3ccc(F)cc3)c2)S(=O)(=O)c2cc(Cl)cc(Cl)c2O)c1 [Example 77, N-(3-((3,5-dichloro-2-hydroxy-N-(3-(methylsulfonyl)benzyl)phenylsulfonamido)methyl)-5-(4-fluorophenoxy)benzyl)-3-phenoxybenzamide] | 77 | 194 | 133
15 | O=S(=O)(c1cc(Cl)cc(Cl)c1)N(Cc1ccc(F)cc1)Cc1cccc(CN(Cc2ccc(F)cc2)S(=O)(=O)c2cc(Cl)cc(Cl)c2O)n1 [Example 91, 3,5-dichloro-N-((6-((3,5-dichloro-N-(4-fluorobenzyl)phenylsulfonamido)methyl)pyridin-2-yl)methyl)-N-(4-fluorobenzyl)-2-hydroxybenzenesulfonamide] | 33 | 52 | 42
16 | O=S(=O)(c1cc(Cl)cc(Cl)c1)N(Cc1ccc(F)cc1)Cc1cccc(CN(Cc2ccc(F)cc2)S(=O)(=O)c2cc(Cl)cc(Cl)c2O)[n+]1[O-] [Example 92, 2-((3,5-dichloro-N-(4-fluorobenzyl)-2-hydroxyphenylsulfonamido)methyl)-6-((3,5-dichloro-N-(4-fluorobenzyl)phenylsulfonamido)methyl)pyridine 1-oxide] | 12 | 60 | 46
17 | O=S(=O)(c1cccc(CN(Cc2ccc(F)cc2)S(=O)(=O)c2cc(Cl)cc(Cl)c2O)c1)N(Cc1ccc(F)cc1)Cc1cc(Cl)cc(Cl)c1 [Example 94, 3,5-Dichloro-N-(3-(N-(3,5-dichlorobenzyl)-N-(4-fluorobenzyl)sulfamoyl)benzyl)-N-(4-fluorobenzyl)-2-hydroxybenzenesulfonamide] | 40 | 60 | 60
18 | O=C(c1cccc(CN(Cc2ccc(F)cc2)S(=O)(=O)c2cc(Cl)cc(Cl)c2O)c1)N(Cc1ccc(F)cc1)Cc1cc(Cl)cc(Cl)c1 [Example 95, 3-((3,5-Dichloro-N-(4-fluorobenzyl)-2-hydroxyphenylsulfonamido)methyl)-N-(3,5-dichlorobenzyl)-N-(4-fluorobenzyl)benzamide] | 60 | 70 | 120
19 | O=S(=O)(c1cc(Cl)cc(Cl)c1O)N(Cc1ccc(F)cc1)Cc1ccc(CN(Cc2ccc(F)cc2)S(=O)(=O)c2cc(Cl)cc(Cl)c2O)cc1 [Example 96, N-(4-Fluoro-benzyl)-N-(4-{[(4-fluoro-benzyl)-(3,5-dichloro-2-hydroxybenzene)sulfonyl-amino]-methyl}-benzyl)-3,5-dichloro-2-hydroxybenzenesulfonamide] | 60 | 10 | 110
